The term IC50 denotes the point on the concentration scale where inhibition reaches its midpoint. A word on the GI50: it is the concentration that inhibits growth by half.

For series [1], the system named is PC-3 cell line. Kind of series: MTT cytotoxicity assay in PC-3. As for the experimental part:
The results are tabulated as IC50 values. All experiments were independently performed at least three times and the values were calculated after 72 hours exposure (drug concentrations of 2, 5, 7 and 10 μM).
PC-3 cells were seeded in 96-well plates (Millipore, Eschborn, Germany) at a density of 5 × 10^3 cells per well. The samples were incubated at 37 °C under 5% CO2 overnight prior to the addition of the compounds. Compounds were diluted in complete medium. After 3 days of incubation, 10 μL MTT solution (5 mg/mL in PBS) was added to the cells in each well and these were stored for an additional 4 h at 37 °C. […] The percentage of viable cells was calculated to obtain IC50-values.
PC-3 are human tumorigenic and metastatic prostate cancer cells and these were obtained from American Type Culture Collection (ATCC, Manassas, VA, USA) (passage 36).
(Tetrazolium dyes change colour on reduction, which living cells bring about.)

The test system of series [2] is HT-29. The experiment in a line: MTT cytotoxicity assay (NCI) in HT-29. The series is classed as cell-based, human. The settings on record: 72 h; for TGI HT-29: dose that completely inhibits cell growth; for LD50 HT-29: dose that kills 50% of cells; for GI50: Homo sapiens, HT-29, dose that inhibits 50% of cell growth, read-out: GI50 HT-29. As for the experimental part:
(§1) In order to investigate the effect of the active compounds in more detail, we examined the activity on proliferation in other cancer cell lines. […] Tests were carried out in the Department of Health Science, Public University of Navarra against a panel of four human tumour cell lines: lung (HTB-54), colon (HT-29), leukaemia (CCRF-CEM) and breast adenocarcinoma (MCF-7). Cytotoxicity assays were performed based on the reactivity of MTT [3-(4,5-dimethylthiazol-2-yl)-2,5-diphenyl-tetrazolium bromide], as described by NCI [39]. […] Doxorubicin was used as a control. As guidance with regard to selectivity, all of the compounds were further examined for toxicity in a mammary gland cell culture derived from non-malignant cells (184B5). Drug concentrations ranged from 0.01 to 100 μM.
(§2) The cytotoxic effects of each substance were tested at five different doses between 0.01 and 100 μM. Each substance was initially dissolved in DMSO at a concentration of 0.1 M, and serial dilutions were prepared using culture medium. The plates with cells from the different lines, to which medium containing the substance under test were added, were incubated for 72 h at 37 °C in a humidified atmosphere containing 5% CO2. European Collection of Cell Cultures (ECACC) or American Type Culture Collection (ATCC) provided human tumour cell lines. Four cell lines were used: one human lymphocytic leukemia (CCRF-CEM) and three human solid tumours, one colon carcinoma (HT-29), one lung carcinoma (HTB-54) and one breast adenocarcinoma (MCF-7). CCRF-CEM, HT-29 and HTB-54 cells were grown in RPMI 1640 medium (Life Technologies, Carlsbad, CA, USA) supplemented with 10% foetal calf serum, 2 mM L-glutamine, 100 units/mL penicillin, 100 μg/mL streptomycin and 10 mM HEPES buffer (pH = 7.4). MCF-7 cells were grown in EMEM medium (Clonetics) supplemented with 10% foetal calf serum, 2 mM L-glutamine, 100 units/mL penicillin and 100 μg/mL streptomycin. 184B5 cells were grown Hams F-12/DMEM (50:50) supplemented as described by Li et al.. Cytotoxicity was then determined by the MTT method. […] Data were obtained from at least three independent experiments performed in quadruplicate.

Series [3] can be described thus: MTT toxicity assay in non-malignant mammary gland cells 184B5. The note with it: human. Type of series: cell-based. As to the method: as §1, §2
Series [4] deals with 184B5. The series is described as above. The series is classed as cell-based. The note with it: for LD50 184B5 / TGI 184B5: 72 h; for LD50 184B5: non-malignant cells, dose that kills 50% of cells; for TGI 184B5: human. As for the experimental part:
as §1, §2

Series [5] concerns MCF-7. The experiment in a line: MTT cytotoxicity assay (NCI) in MCF-7. The settings on record: 72 h; for TGI MCF-7: dose that completely inhibits cell growth; for LD50 MCF-7: dose that kills 50% of cells; for GI50: Homo sapiens, MCF7, dose that inhibits 50% of cell growth, read-out: GI50 MCF-7. The series is classed as cell-based, human. As to the method:
as §1, §2

The test system of series [6] is CCRF-CEM. The experiment in a line: MTT cytotoxicity assay (NCI) in CCRF-CEM. Type of series: cell-based, human. The note with it: 72 h; for TGI CCRF-CEM: dose that completely inhibits cell growth; for LD50 CCRF-CEM: dose that kills 50% of cells; for GI50: Homo sapiens, CCRF-CEM, dose that inhibits 50% of cell growth, read-out: GI50 CCRF-CEM. As for the experimental part:
as §1, §2

Series [7] concerns HTB-54. Kind of series: MTT cytotoxicity assay (NCI) in HTB-54. The series is classed as cell-based, human. The note with it: 72 h; for TGI HTB-54: dose that completely inhibits cell growth; for LD50 HTB-54: dose that kills 50% of cells; for GI50: Homo sapiens, HTB-54, dose that inhibits 50% of cell growth, read-out: GI50 HTB-54. As for the experimental part: as §1, §2
Where [8] appears, read: read-out: IC50 PC-3 cell line, 72 h exposure, MTT, drug concentrations 2, 5, 7 and 10 μM, NE = no effect is observed.
The mark [9] stands for this setting: Homo sapiens, PC-3, 72 h, read-out: IC50 PC-3 cell line.
[10] abbreviates: Homo sapiens, PC-3, read-out: IC50 (cytotoxic activity in PC-3 cell line).
[11] abbreviates: 72 h exposure, MTT, drug concentrations 2, 5, 7 and 10 μM, NE = no effect is observed.

Like-named read-outs stand apart in the source and are kept apart here. Some results are limits rather than exact numbers.

For the compound “(3-phenyl-propanonylselenyl)acetic acid [Compound 12]”, in series [1] (setting [8]), the IC50 is above 10 µM.

As for `CC(C)(C)c1ccc(C(=O)[Se]CC(=O)O)cc1` [Compound 6, (4-tert-butylbenzoyl-selenyl)acetic acid], the IC50 in series [1] (setting [9]) and in series [1] (setting [10]) was above 10 µM each time.

Regarding `O=C(O)C[Se]C(=O)c1ccc2ccccc2n1` [Compound 25, (2-quinoloylselenyl)acetic acid], the IC50 in series [1] (setting [9]) was above 10 µM.

Consider `Cc1ccc(C(=O)[Se]CC(=O)O)cc1` [Compound 5, (4-methylbenzoylselenyl)acetic acid], for which the IC50 in series [1] (setting [9]) and in series [1] (setting [10]) was above 10 µM throughout.

Consider `O=C(O)C[Se]C(=O)c1ccc2c(c1)OCO2` [Compound 16, (3,4-methylenedioxy-benzoylselenyl) acetic acid], for which the IC50 in series [1] (setting [9]) and in series [1] (setting [10]) was above 10 µM each time.

For `O=C(O)C[Se]C(=O)c1ccc2ccccc2c1` [Compound 17, (2-naphthoylselenyl)acetic acid], the IC50 in series [1] (setting [9]) was above 10 µM.

For `COc1cc(OC)cc(C(=O)[Se]CC(=O)O)c1` [Compound 14, (3,5-dimethoxy-benzoylselenyl)acetic acid], in series [2], the “TGI HT-29” value was 47.42 µM, the “LD50 HT-29” value was above 100 µM and the GI50 is 5.99 µM. This compound also displayed a GI50 at 72 h in series [3] of 0.0009 µM. Besides, in series [4], the “LD50 184B5” value was 62.55 µM and the “TGI 184B5” value worked out at 8.21 µM. In addition, in series [5], the “TGI MCF-7” value was 6.19 µM, the “LD50 MCF-7” value worked out at 52.65 µM and the GI50 amounted to 1.57 µM. The “TGI MCF-7” value in series [5] (listed as 3,5-dimethoxyphenyl) came out at 4.18 µM. Also, in series [6], the “TGI CCRF-CEM” value is above 100 µM, the “LD50 CCRF-CEM” value was above 100 µM and the GI50 is above 100 µM. In series [7], the “TGI HTB-54” value is above 100 µM, the “LD50 HTB-54” value was above 100 µM and the GI50 amounted to 16.8 µM. For the same compound, the IC50 in series [1] (setting [9]) was 4 µM. Besides, the half-inhibitory concentration (IC50) in series [1] (setting [10]) is 4 µM.

Turning to `N#Cc1ccc(C(=O)[Se]CC(=O)O)cc1` [Compound 2, (4-cyanobenzoylselenyl)acetic acid], in series [2], the “TGI HT-29” value stood at 51.95 µM, the “LD50 HT-29” value was above 100 µM and the GI50 is 8.95 µM. For the same compound, in series [3], the GI50 at 72 h came to 2.29 µM. For the same compound, in series [4], the “LD50 184B5” value turned out to be 78.91 µM and the “TGI 184B5” value was 20.14 µM. Further, the “selectivity index (184B5/MCF-7 LD50 ratio)” value in series [4] (LD50 in 184B5 divided by LD50 in MCF-7) turned out to be 3.4. Moreover, in series [5], the “TGI MCF-7” value turned out to be 6.54 µM, the “LD50 MCF-7” value stood at 23.12 µM and the GI50 stood at 2.64 µM. Moreover, in series [6], the “TGI CCRF-CEM” value was above 100 µM, the “LD50 CCRF-CEM” value was above 100 µM and the GI50 was above 100 µM. Moreover, in series [7], the “TGI HTB-54” value was found to be 9.91 µM, the “LD50 HTB-54” value was above 100 µM and the GI50 turned out to be 1.9 µM. Further, in series [1] (setting [9]), the IC50 turned out to be 10 µM. Besides, the IC50 in series [1] (setting [10]) turned out to be 10 µM.

Consider `O=C(O)C[Se]C(=O)c1cnccn1` [Compound 24, (pyrazinoylselenyl)acetic acid], for which the IC50 in series [1] (setting [9]) and in series [1] (setting [10]) was above 10 µM throughout.

As to `O=C(O)C[Se]C(=O)c1cc(Cl)cc(Cl)c1` [Compound 13, (3,5-dichlorobenzoylselenyl)acetic acid], the IC50 in series [1] (setting [9]) and in series [1] (setting [10]) was above 10 µM throughout.

With `COc1cc(C(=O)[Se]CC(=O)O)cc(OC)c1OC` [Compound 15, (3,4,5-trimethoxybenzoylselenyl)acetic acid], the “IC50 PC-3 cell line” value in series [1] (setting [11]) is “suppression of the antitumour activity”. Moreover, the IC50 in series [1] (setting [9]) and in series [1] (setting [10]) was above 10 µM each time.

Consider `O=C(O)C[Se]C(=O)c1ccccc1Br` [Compound 9, (2-bromobenzoylselenyl)acetic acid], for which the IC50 in series [1] (setting [9]) and in series [1] (setting [10]) was above 10 µM each time.

Regarding `O=C(O)C[Se]C(=O)c1cccnc1` [Compound 20, (3-pyridoylselenyl)acetic acid], the IC50 in series [1] (setting [9]) and in series [1] (setting [10]) was above 10 µM throughout.

For `O=C(O)C[Se]C(=O)c1ccccc1Cl` [Compound 8, (2-chlorobenzoylselenyl)acetic acid], the IC50 in series [1] (setting [9]) and in series [1] (setting [10]) was above 10 µM in each case.

For “(4-methoxyphenylselenyl)acetic acid [Compound 7]”, the “IC50 PC-3 cell line” value in series [1] (setting [11]) is “inactive”. Also, the IC50 was above 10 µM in series [1] (read-out: IC50 (cytotoxic activity in PC-3 cell line), as repeated in Table 5, NE = no effect) and above 10 µM in series [1] (setting [8]).

For the compound `COc1cccc2c1C(=O)c1c(O)c3c(c(O)c1C2=O)C[C@@](O)(C(=O)CO)C[C@@H]3O[C@H]1C[C@H](N)[C@H](O)[C@H](C)O1` [Doxorub., doxorubicin, reference compound], in series [5], the “TGI MCF-7” value was above 100 µM, the “LD50 MCF-7” value is above 100 µM and the GI50 is 0.88 µM. In addition, in series [6], the “TGI CCRF-CEM” value was determined as 0.071 µM, the “LD50 CCRF-CEM” value came out at 0.29 µM and the GI50 worked out at 0.033 µM. Further, in series [7], the “TGI HTB-54” value is 1.25 µM, the “LD50 HTB-54” value was 3.45 µM and the GI50 was below 0.01 µM.

For the compound `O=C(O)C[Se]C(=O)c1cnc2ccccc2c1` [Compound 26, (3-quinoloylselenyl)acetic acid], the IC50 in series [1] (setting [9]) was above 10 µM.

With `O=C(O)C[Se]C(=O)c1ccc(Cl)cc1` [Compound 4, (4-chlorobenzoylselenyl)acetic acid], the IC50 in series [1] (setting [9]) and in series [1] (setting [10]) was above 10 µM throughout.

In the case of `O=C(O)C[Se]C(=O)c1cccs1` [Compound 23, (2-thienoylselenyl)-acetic acid], the IC50 in series [1] (setting [9]) and in series [1] (setting [10]) was above 10 µM each time.

As to `O=C(O)C[Se]C(=O)c1ccc(C(F)(F)F)cc1` [Compound 3, (4-trifluoromethylbenzoylselenyl)acetic acid], the IC50 in series [1] (setting [9]) and in series [1] (setting [10]) was above 10 µM each time.

`O=C(O)C[Se]C(=O)c1ccncc1` [Compound 19, (4-pyridoylselenyl)acetic acid]: the IC50 in series [1] (setting [9]) and in series [1] (setting [10]) was above 10 µM throughout.

`CCCSc1ncccc1C(=O)[Se]CC(=O)O` [Compound 22, (3-(2-propylthio)pyridoylselenyl)acetic acid]: the IC50 in series [1] (setting [9]) and in series [1] (setting [10]) was above 10 µM each time.

For `O=C(O)C[Se]C(=O)c1ccccc1I` [Compound 10, (2-iodobenzoylselenyl)acetic acid], the IC50 in series [1] (setting [9]) and in series [1] (setting [10]) was above 10 µM in each case.

Regarding `O=C(O)C[Se]C(=O)C(c1ccccc1)c1ccccc1` [Compound 18, (diphenylacetylselenyl)acetic acid], the IC50 in series [1] (setting [9]) was above 10 µM.

(Values after paper PMC6254723, “Synthesis and Pharmacological Screening of Several Aroyl and Heteroaroyl Selenylacetic Acid Derivatives as Cytotoxic and Antiproliferative Agents” (Molecules, 2009).)
